# Patent publication US20060241168A1, “Antidepressant” (priority 2002, published 2006)
# System: Akt
# Assay: Akt phosphorylation in rat hippocampus glia mixed culturing system (immunoprecipitation, Western blotting)
# Type: cell-based
# Conditions: rat hippocampus mixed culture; added at 300 nM or 100 nM; after one day and three days
# Protocol: The hippocampus was removed from a 3 day-old rat and the cells were dispersed in a nerve dispersing solution. After the number of the cells was counted, the cells were suspended in a DMEM/F-12 medium containing 10% FCS (Embryo Max) and was then seeded on a 6-well plate coated with type I collagen at a density of 3×10^5 cells/cm^2. After cultured for 4 days, the medium was replaced with a N2 supplement-containing medium. Compound (I) (Compound 17a was used; hereinafter referred to Compound A) was added to a well at 300 nM or 100 nM, and IGF-1 was added to a well at 100 ng/mL. One day or three days after the addition, the cells were collected using Lysis Buffer containing protease inhibitor cocktail. Each cell suspension was centrifuged at 20000 rpm for 30 minutes and the supernatant was collected. An anti-5G3 Akt antibody was added to the supernatant to immunoprecipitate intracellular Akt. The resulting precipitate was subjected to SDS-PAGE using a 5-20% polyacrylamide gel and then to Western blotting. An anti-Phospho Akt antibody as a primary antibody and an HRP-linked anti-Rabbit antibody as a secondary antibody were used to detect the bands of phosphorylated Akt (Ser473 and Thr308). In order to detect the total Akt, the PVDF membrane was immersed in a reprobe buffer and permeated at 55° C. for 20 minutes to peel the antibodies. […]
smiles,measurement,value
COc1cc2c(cc1OC)CN(c1c(C)c(C)c3c(c1C)[C@@H](c1ccc(C)cc1)C(C)(C)O3)C2 [Compound A],phosphorylation of Akt at Ser473,promoted phosphorylation
same,phosphorylation of Akt at Thr308,promoted phosphorylation
